Structures can show the parent of a compound that is named as a salt.
Columns and labels:
[1] = Solid form stability on storage (XRPD re-analysis); format: physicochemical
Description: The solids were dried under vacuum at ambient temperature (about 23° C.) for 17 h. The solids on the XRPD plate were stored at 40° C./75% RH for 22 h then re-analyzed. Amorphous and a mixture of Compound I dihydrochloride Form 2 and Form 6 were obtained (Table 7).
The solids were isolated by filtration after a total of 27.5 h at 5° C. and washed with 0.6 mL of cold acetone or 3×0.6 mL of cold heptane. The solids were dried under vacuum at ambient temperature (about 23° C.) for 17 h. The solids on the XRPD plate were stored at 40° C./75% RH for 22 h then re-analyzed by XRPD. Results, which are summarized in Table 8, show mixtures of Compound I dihydrochloride Forms 5 and 6, 5, 2 and 1, and 2 were obtained.
1.0 mL of water was added to approximately 300 mg of Compound I dihydrochloride Form 1. The resulting mixture was magnetically stirred at 50° C. over about 15 min, then stirred at 50° C. for 0.25 h. The solution was polish filtered (0.45 μm PTFE filter) into a 2 mL push-cap vial and then stirred at 50° C. for 0.25 h, prior to cooling to 5° C. at 0.1° C./min. After 62 h at 5° C., the experiment was sub-sampled and the solid was analyzed by XRPD. The material on the XRPD plate was dried under vacuum at 35° C. under a stream of wet nitrogen (20-38% RH) for about 9 h and then re-analyzed by XRPD. The material on the XRPD plate was stored at 25° C./60% RH for 22 h and then re-analyzed by XRPD. After a total of 87 h at 5° C., solids were isolated by centrifugation (0.22 μm nylon filter) and analyzed by XRPD. The solids were air-dried at ambient temperature (about 22° C.) for 24 h.
Small-scale crystallization Experiment 7 was sub-sampled prior to ASA and after ASA was complete, with solids isolated by centrifugation (0.22 μm nylon filter) and analyzed by XRPD.
Approximately 10 g of Compound I dihydrochloride Form 1 was dissolved in 67 mL of ethanol:water 99:1 v/v at about 60° C. (initial concentration: 150 mg/mL). Polish filtration was carried out (0.2 μm PTFE filter). The solution was transferred to a 250 mL vessel at 60° C. and stirred at 50° C. (solution temperature) and 300 rpm for about 5 min. The solution was seeded with about 100 mg (1 wt. %) of Compound I dihydrochloride Form 2, isolated from small-scale crystallization Experiments 12 and 13, from example 4 above. The seed dissolved rapidly. Anti-solvent addition of 10 mL of heptane (1 volume) was carried out at 2 vol/h (Heptane content of 13%). The solution was re-seeded with a further 100 mg (1 wt. %) of Form 2, isolated from small-scale crystallization Experiment 12. The seed persisted and a slurry formed. The slurry was stirred at 50° C. for 1 h and then anti-solvent addition of 131 mL of heptane at 1.5 vol/h was carried out, to reach 60% heptane. […] An additional 2 volumes of ethanol:water 99:1 v/v was added at the beginning of the ASA to mobilize the slurry. Once ASA was complete, the slurry was cooled to 5° C. at 0.1° C./min. The experiment was sub-sampled after about 2 h at 5° C. The slurry was thick but mixing. After 3.5 h at 5° C., an additional 3.6 mL of water was added to increase the water content to 2% (ethanol:water:heptane ratio of 39:2:59 v/v/v). The experiment was sub-sampled again after 2 h at 5° C. with additional water. After a total of 10 h at 5° C., solids were isolated by filtration and washed with 2 volumes of cold (5° C.) ethanol:heptane 40:60 v/v. The solids were filtered and dried under vacuum at ambient temperature (about 21° C.) for 14.5 h, then analyzed by XRPD.

[2] = Dynamic vapor sorption (DVS); conditions: for DVS uptake: 25° C.
[3] = Solubility screening by solvent addition technique (approximate solubility); format: physicochemical; conditions: thermodynamic from solid; water; at ambient temperature; small, fine particles remained (Experiment 25)
[4] = stored at 40° C./75% RH for 22 h

## CC[C@H]1CN2CCc3cc(OC)c(OC)cc3[C@@H]2C[C@@H]1C[C@H]1NCCc2cc(OC)c(OC)cc21 [Form 2 with a trace Form 1]
[1]; [4]
  Solid form by XRPD after storage: Compound I dihydrochloride Form 2 was obtained

## CC[C@H]1CN2CCc3cc(OC)c(OC)cc3[C@@H]2C[C@@H]1C[C@H]1NCCc2cc(OC)c(OC)cc21 [Compound I dihydrochloride Form 7B, (2S,3R,11bS)-2-(((R)-6,7-dimethoxy-1,2,3,4-tetrahydroisoquinolin-1-yl)methyl)-3-ethyl-9,10-dimethoxy-1,3,4,6,7,11b-hexahydro-2H-pyrido[2,1-a]isoquinoline dihydrochloride]
[2]; between 20-70% RH, cycle 2 sorption, material of large-scale Experiment 4 dried under vacuum at about 20° C. for 17.5 h
  DVS uptake: 8.7%
[2]; between 40-80% RH, cycle 1 sorption
  DVS uptake: about 3%
[2]; between 80-90% RH, cycle 1 sorption
  DVS uptake: large uptake
[2]; post-DVS XRPD: amorphous material was recovered
  Relative humidity of deliquescence: about 90 % RH

## CC[C@H]1CN2CCc3cc(OC)c(OC)cc3[C@@H]2C[C@@H]1C[C@H]1NCCc2cc(OC)c(OC)cc21 [mixture of Form 5 and Form 6]
[1]; storage at 5° C. for about 2 weeks
  Solid form by XRPD after storage: Conversion to Form 5
[1]; [4]
  Solid form by XRPD after storage: conversion back to Compound I dihydrochloride Form 5

## CC[C@H]1CN2CCc3cc(OC)c(OC)cc3[C@@H]2C[C@@H]1C[C@H]1NCCc2cc(OC)c(OC)cc21 [Compound I dihydrochloride Form 2, (2S,3R,11bS)-2-(((R)-6,7-dimethoxy-1,2,3,4-tetrahydroisoquinolin-1-yl)methyl)-3-ethyl-9,10-dimethoxy-1,3,4,6,7,11b-hexahydro-2H-pyrido[2,1-a]isoquinoline dihydrochloride]
[1]; stored at 40° C./75% RH for 22 h, dihydrochloride
  Solid form by XRPD after storage: maintained

## CC[C@H]1CN2CCc3cc(OC)c(OC)cc3[C@@H]2C[C@@H]1C[C@H]1NCCc2cc(OC)c(OC)cc21 [Compound I dihydrochloride Form 1, (2S,3R,11bS)-2-(((R)-6,7-dimethoxy-1,2,3,4-tetrahydroisoquinolin-1-yl)methyl)-3-ethyl-9,10-dimethoxy-1,3,4,6,7,11b-hexahydro-2H-pyrido[2,1-a]isoquinoline dihydrochloride]
[3]
  solubility: > 200 mg/mL

## CC[C@H]1CN2CCc3cc(OC)c(OC)cc3[C@@H]2C[C@@H]1C[C@H]1NCCc2cc(OC)c(OC)cc21 [Compound I dihydrochloride Form 8, (2S,3R,11bS)-2-(((R)-6,7-dimethoxy-1,2,3,4-tetrahydroisoquinolin-1-yl)methyl)-3-ethyl-9,10-dimethoxy-1,3,4,6,7,11b-hexahydro-2H-pyrido[2,1-a]isoquinoline dihydrochloride]
[1]; 1 h under ambient conditions
  Solid form by XRPD after storage: converted to Compound I dihydrochloride Form 2
[1]; 3 h under ambient conditions
  Solid form by XRPD after storage: converted to Form 2

## CC[C@H]1CN2CCc3cc(OC)c(OC)cc3[C@@H]2C[C@@H]1C[C@H]1NCCc2cc(OC)c(OC)cc21 [Compound I dihydrochloride Form 6, (2S,3R,11bS)-2-(((R)-6,7-dimethoxy-1,2,3,4-tetrahydroisoquinolin-1-yl)methyl)-3-ethyl-9,10-dimethoxy-1,3,4,6,7,11b-hexahydro-2H-pyrido[2,1-a]isoquinoline dihydrochloride]
[1]; storage at ambient conditions
  Solid form by XRPD after storage: maintained
[1]; stored at 25° C./60% RH for 22 h
  Solid form by XRPD after storage: maintained
